Experimental data reported in US8030547B2, “Gene coding for acetolactate synthase” (priority 2002, dated 2011).
Where “and” joins values, the source holds several entries; their conditions need not be identical. Equal values may be shown once.

How the values were obtained:
[1] = tested on: mutant ALS protein of Sr line; test: Herbicide sensitivity of partially purified ALS protein (ALS activity inhibition), Sr line; format: biochemical, Oryza sativa var. Kinmaze; details: I50 of the resistant mutant divided by I50 of the wild type
Protocol: (§1) First, 200 g or more of resistant mutant was prepared by a liquid culture method (no supplementation with bispyribac-sodium), using a composition as shown in Table 3 excluding Gelrite. Then, about 150 g of the resistant mutant was homogenized using Hiscotron in a volume of buffer-1 [100 mM potassium phosphate buffer (pH 7.5) containing 20% (v/v) glycerol, […] thiamin pyrophosphate (TPP), 10 μM flavin adenine dinucleotide (FAD), 0.5 mM MgCl2, and a volume of polyvinyl polypyrrolidone one-tenth that of tissue volume] 3-fold greater than tissue volume. The homogenate was filtered through nylon gauze, and then centrifuged at 15000×g for 20 minutes. Ammonium sulfate was added to the centrifuged supernatant to 50% saturation, and then allowed to stand in ice for approximately 1 hour. The mixture was again centrifuged at 15000×g for 20 minutes, and then the precipitated fraction was dissolved in approximately 30 ml of buffer-2 [10 mM Tris hydrochloric acid buffer (pH 7.5) containing 20% (v/v) glycerol, 0.5 mM TPP and 0.5 mM MgCl2]. The mixture was again centrifuged at 15000×g for 20 minutes, and then the supernatant fraction was applied to a Sephadex G-25 (Amersham Bioscience). About 40 ml of the fraction that had passed through the column was collected as a crude enzyme solution.
(§2) Next, the protein concentration of the crude enzyme solution was measured by the Bradford method according to the manual of Bio-Rad Protein Assay. The crude enzyme solution was then filtered through a Whatman filter (Whatman), and then the crude enzyme solution in an appropriate protein amount (10 to 15 ml) was applied to three vertically-connected HiTrap Q columns (Amersham Bioscience) using a FPLC device (Amersham Bioscience). After protein component was adsorbed using HiTrap Q, unadsorbed fractions were washed out using buffer-2 having a volume 3 to 5 fold greater than the bed volume. Then, the adsorbed protein component was eluted using an eluate having a volume 10 fold greater than the bed volume (150 ml). Here, the eluate was prepared by dissolving KCl with a linear concentration gradient (0 to 0.4 M) into buffer-2. The eluate containing the eluted protein component was apportioned, 5 ml each, into a plurality of test tubes for apportioning. Further, to stabilize ALS protein contained in the eluted protein component, 0.5 ml of buffer-2 containing 20 mM sodium pyruvate had been previously added to each test tube for apportioning.
(§3) ALS activity resulting from the mutant ALS protein contained in the eluted fractions apportioned into each test tube for apportioning was measured as follows. A reaction solution to be used in a measurement reaction was prepared by mixing an eluted fraction to be measured with a solution comprising 20 mM sodium pyruvate, 0.5 mM TPP, 0.5 mM MgCl2, 10 μM FAD and 20 mM potassium phosphate buffer (pH 7.5). One ml of this reaction solution was used. After the eluted fraction to be measured was added, the measurement reaction was performed at 30° C. for 40 to 60 minutes. Then, the reaction was stopped by addition of 0.1 ml of 6N sulfuric acid (or 0.25 N sodium hydroxide).
(§4) After the reaction was stopped, the reaction solution was incubated at 60° C. for 10 minutes, thereby converting acetolactate contained in the reaction solution to acetoin.
(§5) Then, to quantify acetoin contained in the reaction solution, 1 ml of 0.5% (w/v) creatine and 1 ml of 5% (w/v) α-naphthol dissolved in 2.5 N sodium hydroxide was added to the reaction solution, followed by incubation at 37° C. for 10 minutes. Acetoin was then quantified by color comparison of the absorbance (at 525 nm) of the reaction solution, thereby evaluating ALS activity. In addition, since the reaction solution contained a small amount of sodium pyruvate, reaction time 0 was used as control.
(§6) Using the enzyme solution containing the mutant ALS protein, sensitivity of the mutant ALS protein to bispyribac-sodium, chlorsulfuron and imazaquin was examined. […]

[2] = biological target: T1, mutant ALS protein of Sr line (Oryza sativa subsp. japonica, UniProt Q6K2E8); test: as above; format: biochemical, Oryza sativa var. Kinmaze; details: read-out: I50 (nM) Sr; partially purified ALS, 30° C., probit analysis
T1 construct: other: partially purified ALS, 30° C., probit analysis
T1 sequence (Q6K2E8 whole entry W548L/S627I, form open): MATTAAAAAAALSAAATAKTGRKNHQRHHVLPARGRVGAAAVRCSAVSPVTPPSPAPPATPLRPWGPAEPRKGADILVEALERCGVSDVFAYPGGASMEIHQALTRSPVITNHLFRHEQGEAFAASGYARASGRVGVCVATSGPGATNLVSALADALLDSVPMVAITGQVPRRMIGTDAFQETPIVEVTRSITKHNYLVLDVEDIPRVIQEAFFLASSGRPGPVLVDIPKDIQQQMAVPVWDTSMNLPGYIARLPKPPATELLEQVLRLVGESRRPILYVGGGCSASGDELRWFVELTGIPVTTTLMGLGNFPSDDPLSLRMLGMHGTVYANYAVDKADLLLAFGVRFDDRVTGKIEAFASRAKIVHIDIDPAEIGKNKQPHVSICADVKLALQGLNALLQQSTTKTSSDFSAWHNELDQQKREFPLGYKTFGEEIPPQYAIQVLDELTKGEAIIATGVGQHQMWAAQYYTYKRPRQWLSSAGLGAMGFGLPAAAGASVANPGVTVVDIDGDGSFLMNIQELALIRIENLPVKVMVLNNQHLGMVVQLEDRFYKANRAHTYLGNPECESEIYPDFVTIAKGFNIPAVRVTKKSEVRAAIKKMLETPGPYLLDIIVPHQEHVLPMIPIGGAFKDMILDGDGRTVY
Protocol: as §1, §2, §3, §4, §5, §6

[3] = biological target: T2, GST fusion R172S mutant ALS protein (Oryza sativa subsp. japonica, UniProt Q6K2E8, R172S); test: Herbicide sensitivity of ALS protein expressed in E. coli (crude enzyme solution), R172S; format: biochemical, rice (Oryza sativa var. Kinmaze); details: for RS ratio: R172S mutant vs wild type
T2 construct: an expression vector having the full-length wild type ALS cDNA incorporated into the Eco RI site of pGEX-2T; made in house; host or cells: E. coli JM109, pGEX-2T(ALS R172S mutant); crude supernatant
T2 sequence (Q6K2E8 44-644 R172S): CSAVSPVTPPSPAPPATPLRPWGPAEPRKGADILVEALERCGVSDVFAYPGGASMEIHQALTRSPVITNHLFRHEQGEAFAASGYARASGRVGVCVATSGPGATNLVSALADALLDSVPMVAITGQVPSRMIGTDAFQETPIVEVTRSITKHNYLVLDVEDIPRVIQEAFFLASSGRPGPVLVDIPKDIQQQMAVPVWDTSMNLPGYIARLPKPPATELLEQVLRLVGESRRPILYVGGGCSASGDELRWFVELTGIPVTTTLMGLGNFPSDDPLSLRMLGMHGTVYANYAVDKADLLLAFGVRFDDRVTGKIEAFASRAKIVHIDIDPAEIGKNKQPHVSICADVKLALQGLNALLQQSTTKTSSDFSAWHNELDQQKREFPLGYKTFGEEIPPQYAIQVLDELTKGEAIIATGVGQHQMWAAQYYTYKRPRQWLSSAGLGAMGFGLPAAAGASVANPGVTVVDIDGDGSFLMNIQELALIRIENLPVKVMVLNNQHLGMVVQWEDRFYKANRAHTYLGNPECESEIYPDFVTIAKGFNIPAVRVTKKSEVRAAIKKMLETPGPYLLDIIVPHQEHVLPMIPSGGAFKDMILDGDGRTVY
Protocol: as §3, §4, §5
E. coli transformed with pGEX-2T(ALS-wild) constructed in Example 3(5), E. coli transformed with pGEX-2T(ALS-W548L mutant) constructed in Example 5, E. coli transformed with pGEX-2T(ALS-S627I mutant) constructed in Example 5, E. coli transformed with pGEX-2T(ALS P171H mutant) constructed in Example 6, E. coli transformed with pGEX-2T(ALS R172S mutant) constructed in Example 6, E. coli transformed with pGEX-2T(ALS P171H, R172S mutant) constructed in Example 7, E. coli transformed with pGEX-2T(ALS-P171H, W548L mutant) constructed in Example 8, E. coli transformed with pGEX-2T(ALS-P171H, S627I mutant) constructed in Example 8, and E. coli transformed with pGEX-2T(ALS-P171H, W548L, S627I mutant) constructed in Example 9 were respectively shake-cultured (pre-culture) at 27° C. in 2 ml of LB liquid medium containing ampicillin. These types of E. coli were respectively cultured in 250 ml of LB liquid medium containing ampicillin using 1 ml of the pre-culture solution. After culturing overnight, 1 mM IPTG was added to the media, and then culturing was performed for a further 3 to 4 hours, so that the expression of GST fusion protein was induced. In addition, the cells were stored at −80° C. after washing.
Preparation and purification of ALS from E. coli were performed by the following method. First, the pellet of the transformant E. coli stored at −80° C. was suspended in ALS extraction buffer (potassium phosphate buffer (pH 7.5) containing 30% glycerol and 0.5 mM MgCl2). Specifically, 2.5 ml of the buffer was added to the pellet obtained from 50 ml of the culture solution. The suspension was subjected to ultrasonication (Heat Systems-Ultrasonics, Sonicator W-225R, micro chip, output control 8, interval of approximately 1 second, twice (40 seconds each)), and subjected to centrifugation at 15000×g, 4° C. for 20 minutes, thereby obtaining the supernatant as a crude enzyme solution.
Herbicide sensitivity of the wild type ALS protein and that of mutant ALS protein were examined using the 9 types of crude enzyme solutions obtained in Example 10. Herbicide sensitivity test was performed according to procedures almost the same as those in Example 2. However, in this example, reaction temperature was 37° C., reaction time was 30 minutes, and 10 mM valine was added to the reaction solution to inhibit ALS activity derived from E. coli. Further, three types of herbicides, bispyribac-sodium, pyrithiobac-sodium, and pyriminobac, were used as PC herbicides; chlorsulfuron was used as a sulfonylurea herbicide; and imazaquin was used as an imidazolinon herbicide. […]

Structure (SMILES) | RS ratio Sr [1] | IC50 [2] [nM] | IC50 [3] [nM] | RS ratio [3]
COc1cc(OC)nc(Oc2cccc(Oc3nc(OC)cc(OC)n3)c2C(=O)O)n1 [bispyribac-sodium] | 74.8 | 421 | 6.2 | 0.98
COc1nc(C)nc(NC(=O)NS(=O)(=O)c2ccccc2Cl)n1 [chlorsulfuron] | 5.36 | 92.8 | 11 | 0.85
CC(C)C1(C)N=C(c2nc3ccccc3cc2C(=O)O)NC1=O (stereo not drawn) [imazaquin] | 11.3 | 16700 | 2300 | 0.98 and 1
